Columns and labels:
[1] = target: hemolysin alpha from Staphylococcus aureus (Staphylococcus aureus, UniProt P09616); test: cell-based
[2] = target: S. aureus Alpha hemolysin (Staphylococcus aureus, UniProt P09616); test: cell-based; conditions: A549-LDH Assay activity
Sequence of S. aureus Alpha hemolysin (P09616 27-319 limits assumed): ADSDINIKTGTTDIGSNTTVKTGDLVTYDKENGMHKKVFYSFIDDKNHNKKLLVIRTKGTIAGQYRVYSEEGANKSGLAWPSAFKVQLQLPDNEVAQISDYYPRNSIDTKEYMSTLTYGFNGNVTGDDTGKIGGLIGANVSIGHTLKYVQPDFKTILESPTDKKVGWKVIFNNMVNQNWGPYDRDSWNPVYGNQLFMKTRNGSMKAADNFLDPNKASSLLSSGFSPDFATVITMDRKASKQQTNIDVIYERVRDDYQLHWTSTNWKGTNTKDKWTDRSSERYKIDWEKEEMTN

Sequence of hemolysin alpha from Staphylococcus aureus (P09616 27-319 limits assumed): as above

SMILES | EC50 [1] [nM] | EC50 [2] [nM] | IC50 [1] [nM]
Cc1cc2[nH]c(=O)c(=O)[nH]c2cc1S(=O)(=O)Nc1ccc(-c2ccc3c(c2)NCCO3)c(Cl)c1 [Compound 353, N-[3-chloro-4-(3,4-dihydro-2H-1,4-benzoxazin-6-yl)phenyl]-7-methyl-2,3-dioxo-1,4-dihydroquinoxaline-6-sulfonamide] | 30 to 100 | 100 to 1000 | –
Cc1cc2[nH]c(=O)c(=O)[nH]c2cc1S(=O)(=O)Nc1ccc(-c2ccc(C#N)cc2)c(Cl)c1 [Compound 376, N-[3-chloro-4-(4-cyanophenyl)phenyl]-7-methyl-2,3-dioxo-1,4-dihydroquinoxaline-6-sulfonamide] | < 30 | 30 to 100 | –
Cc1cc2[nH]c(=O)c(=O)[nH]c2cc1S(=O)(=O)Nc1ccc(C2CCOCC2)cc1 [Compound 304, 7-methyl-2,3-dioxo-N-(4-tetrahydropyran-4-ylphenyl)-1,4-dihydroquinoxaline-6-sulfonamide] | 1000 to 3500 | 100 to 1000 | –
Cc1cc2[nH]c(=O)c(=O)[nH]c2cc1S(=O)(=O)Nc1ccc(-c2ccc(F)cc2)c(C(F)(F)F)c1 [Compound 326, N-[4-(4-fluorophenyl)-3-(trifluoromethyl)phenyl]-7-methyl-2,3-dioxo-1,4-dihydroquinoxaline-6-sulfonamide] | < 30 | 30 to 100 | –
Cc1nc2cc(-c3ccc(NS(=O)(=O)c4cc5[nH]c(=O)c(=O)[nH]c5cc4C)cc3Cl)ccc2o1 [Compound 272, N-[3-chloro-4-(2-methyl-1,3-benzoxazol-5-yl)phenyl]-7-methyl-2,3-dioxo-1,4-dihydroquinoxaline-6-sulfonamide] | < 30 | < 30 | –
Cc1cc2[nH]c(=O)c(=O)[nH]c2cc1S(=O)(=O)Nc1ccc(-c2ccc(F)c(C#N)c2)c(Cl)c1 [Compound 393, N-[3-chloro-4-(3-cyano-4-fluoro-phenyl)phenyl]-7-methyl-2,3-dioxo-1,4-dihydroquinoxaline-6-sulfonamide] | 30 to 100 | 100 to 1000 | –
CCCc1ccc(NS(=O)(=O)c2cc3[nH]c(=O)c(=O)[nH]c3cc2C)cc1 [Compound 49, 7-methyl-2,3-dioxo-N-(4-propylphenyl)-1,2,3,4-tetrahydroquinoxaline-6-sulfonamide] | – | 30 to 100 | < 30
O=c1[nH]c2cc(F)c(S(=O)(=O)Nc3ccc(-c4cccc(Cl)c4)c(Cl)c3)cc2[nH]c1=O [Compound 65, N-(2,3′-dichloro-[1,1′-biphenyl]-4-yl)-7-fluoro-2,3-dioxo-1,2,3,4-tetrahydroquinoxaline-6-sulfonamide] | – | 1000 to 6000 | 30 to 100
CC(C)(C)c1ccc(NS(=O)(=O)c2cc3[nH]c(=O)c(=O)[nH]c3cc2Cl)cc1 [Compound 173, N-(4-(tert-butyl)phenyl)-7-chloro-2,3-dioxo-1,2,3,4-tetrahydroquinoxaline-6-sulfonamide] | – | 30 to 100 | 100 to 1000
COCCn1cc(-c2ccc(NS(=O)(=O)c3cc4[nH]c(=O)c(=O)[nH]c4cc3C)cc2Cl)cn1 [Compound 344, N-[3-chloro-4-[1-(2-methoxyethyl)pyrazol-4-yl]phenyl]-7-methyl-2,3-dioxo-1,4-dihydroquinoxaline-6-sulfonamide] | 1000 to 3500 | 1000 to 6000 | –
Cc1cc2[nH]c(=O)c(=O)[nH]c2cc1S(=O)(=O)Nc1ccc(-c2cccc(P(C)(C)=O)c2)c(Cl)c1 [Compound 312, N-[3-chloro-4-(3-dimethylphosphorylphenyl)phenyl]-7-methyl-2,3-dioxo-1,4-dihydroquinoxaline-6-sulfonamide] | 100 to 1000 | 100 to 1000 | –
Cc1cc2[nH]c(=O)c(=O)[nH]c2cc1S(=O)(=O)Nc1ccc(C2=CCCCC2)c(Cl)c1 [Compound 274, N-[3-chloro-4-(cyclohexen-1-yl)phenyl]-7-methyl-2,3-dioxo-1,4-dihydroquinoxaline-6-sulfonamide] | 30 to 100 | 30 to 100 | –
O=c1[nH]c2cc(Cl)c(S(=O)(=O)Nc3ccc(OC(F)(F)F)cc3)cc2[nH]c1=O [Compound 47, 7-chloro-2,3-dioxo-N-(4-(trifluoromethoxy)phenyl)-1,2,3,4-tetrahydroquinoxaline-6-sulfonamide] | – | 30 to 100 | 30 to 100
O=c1[nH]c2cc(F)c(S(=O)(=O)Nc3ccc(-c4ccsc4)c(Cl)c3)cc2[nH]c1=O [Compound 82, N-(3-chloro-4-(thiophen-3-yl)phenyl)-7-fluoro-2,3-dioxo-1,2,3,4-tetrahydroquinoxaline-6-sulfonamide] | – | 1000 to 6000 | 100 to 1000
Cc1cc2[nH]c(=O)c(=O)[nH]c2cc1S(=O)(=O)Nc1ccc(-c2ccc3cccnc3c2)c(C(F)(F)F)c1 [Compound 365, 7-methyl-2,3-dioxo-N-[4-(7-quinolyl)-3-(trifluoromethyl)phenyl]-1,4-dihydroquinoxaline-6-sulfonamide] | < 30 | 100 to 1000 | –
O=c1[nH]c2cc(Cl)c(S(=O)(=O)Nc3ccc(-c4ccoc4)c(Cl)c3)cc2[nH]c1=O [Compound 44, 7-chloro-N-(3-chloro-4-(furan-3-yl)phenyl)-2,3-dioxo-1,2,3,4-tetrahydroquinoxaline-6-sulfonamide] | – | 100 to 1000 | 30 to 100
COc1cc2[nH]c(=O)c(=O)[nH]c2cc1S(=O)(=O)Nc1ccc(Cl)cc1 [Compound 380, N-(4-chlorophenyl)-7-methoxy-2,3-dioxo-1,4-dihydroquinoxaline-6-sulfonamide] | 1000 to 3500 | 100 to 1000 | –
Cc1cc2[nH]c(=O)c(=O)[nH]c2cc1S(=O)(=O)Nc1ccc(-c2ccc(F)cc2)c(OC(F)(F)F)c1 [Compound 327, N-[4-(4-fluorophenyl)-3-(trifluoromethoxy)phenyl]-7-methyl-2,3-dioxo-1,4-dihydroquinoxaline-6-sulfonamide] | 100 to 1000 | 100 to 1000 | –
O=c1[nH]c2cc(Cl)c(S(=O)(=O)Nc3ccc(-c4cccnc4)c(Cl)c3)cc2[nH]c1=O [Compound 48, 7-chloro-N-(3-chloro-4-(pyridin-3-yl)phenyl)-2,3-dioxo-1,2,3,4-tetrahydroquinoxaline-6-sulfonamide] | – | 1000 to 6000 | 30 to 100
O=c1[nH]c2cc(Cl)c(S(=O)(=O)Nc3ccc(C4CCCCC4)cc3)cc2[nH]c1=O [Compound 170, 7-chloro-N-(4-cyclohexylphenyl)-2,3-dioxo-1,2,3,4-tetrahydroquinoxaline-6-sulfonamide] | – | 100 to 1000 | 100 to 1000
Cc1cc2[nH]c(=O)c(=O)[nH]c2cc1S(=O)(=O)Nc1ccc(-c2ccc(=O)[nH]c2)c(Cl)c1 [Compound 358, N-[3-chloro-4-(6-oxo-1H-pyridin-3-yl)phenyl]-7-methyl-2,3-dioxo-1,4-dihydroquinoxaline-6-sulfonamide] | 100 to 1000 | 30 to 100 | –
Cc1nc2ccc(-c3ccc(NS(=O)(=O)c4cc5[nH]c(=O)c(=O)[nH]c5cc4C)cc3Cl)cc2o1 [Compound 269, N-[3-chloro-4-(2-methyl-1,3-benzoxazol-6-yl)phenyl]-7-methyl-2,3-dioxo-1,4-dihydroquinoxaline-6-sulfonamide] | < 30 | < 30 | –
Cc1cc2[nH]c(=O)c(=O)[nH]c2cc1S(=O)(=O)Nc1ccc(OC(F)F)cc1 [Compound 394, N-[4-(difluoromethoxy)phenyl]-7-methyl-2,3-dioxo-1,4-dihydroquinoxaline-6-sulfonamide] | 100 to 1000 | 30 to 100 | –

Reference: patent US20240376084A1, “INHIBITORS OF ALPHA-HEMOLYSIN OF STAPHYLOCOCCUS AUREUS” (Helmholtz-Zentrum Fur Infektionsforschung GmbH, priority 2021, published 2024)
